Results from PMC11189555, “Aryl amino acetamides prevent Plasmodium falciparum ring development via targeting the lipid-transfer protein PfSTART1” (Nature Communications, 2024).

Tests used:
[1] = test system: PopD-D7 M-833 resistant clone (PfSTART1 N309K); assay: Growth inhibition assay (72 h, LDH activity); type: cell-based, Plasmodium falciparum
In short: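 Synchronised ring-stage 3D7-derived clones (0.3-0.6% parasitemia, 2% haematocrit) grown 72 h in compound serial dilutions, some with 0, 0.25 or 2.5 mM glucosamine. Growth read as LDH activity after freeze-thaw (Malstat/NBT, A650), normalised to DMSO and uninfected RBC; EC50 from variable-slope log(inhibitor) fit.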

[2] = target: T1, recombinant PfSTART1(WT) (I149-V394) (Plasmodium falciparum, UniProt Q8I298); assay: Isothermal titration calorimetry; type: binding; settings: for Differential Power DP_Y / ΔH NDH_Y: PfSTART(WT), ITC replicate data
T1 construct: START domain alone (I149-V394 from PF3D7_0104200); 8xHis tag (N); TEV protease cleavage site (N); made in house; host or cells: Sf21 insect cells (baculovirus)
Excerpt: Codon optimised (Spodoptera frugiperda, Sf) START domain alone (I149-V394 from PF3D7_0104200) was synthesised by Integrated DNA Technologies and cloned into a modified baculovirus transfer vector (pAcGP67-A) with a N-terminal GP67-signal sequence, 8xHis tag, and TEV protease cleavage site. Recombinant baculovirus was generated via the flashBACTM Baculovirus Expression System using Sf21 cells (Life Technologies), amplified to reach a third passage viral stock, and 1.5% used to infect Sf21 for protein expression. After incubation for three days at 28 °C, media containing secreted protein was harvested by centrifugation and supplemented with 50 mM Tris pH 7.5, 20 mM MgCl2, 100 mM NaCl, and 10-20 mM imidazole. The supplemented protein sample was purified by nickel affinity chromatography (HisTrap Excel 5 mL, Cytiva), and eluted with 20 mM Tris pH 7.5, 500 mM NaCl, 300-500 mM imidazole. Eluted fractions were further purified using size-exclusion chromatography (Superdex S75 16/600 or Superdex 10/300, Cytiva) with the column pre-equilibrated with 20 mM HEPES pH 7.5, 150 mM NaCl, and peak-containing fractions concentrated and stored at -80 °C until required. If required, prior to ITC, a second size-exclusion chromatography step was performed to remove soluble aggregates.
ITC experiments were performed on a MicroCal PEAQ-ITC calorimeter at 25 °C, with a stirring speed of 750 rpm and a reference power of 5 μcal/sec. 500 μM M-833 series inhibitor solutions were diluted to 10 μM in 50 mM NaPO4^-3 (pH 7.4), 150 mM NaCl with a final DMSO concentration of 2% (v/v) (cell sample). PfSTART1 protein was dialysed extensively against 50 mM NaPO4^-3 (pH 7.4), 150 mM NaCl, before diluting to 90 μM in the same buffer with 2% (v/v) DMSO (syringe sample). The first injection was 0.4 μL over a 0.8 s duration, and the remaining 19 injections were 2 μL of 4 s duration, with 150 s injection spacing. Data were collected and analysed using the PEAQ-ITC software (MicroCal) and fit by a single site binding model. A fitted offset (constant control heat) was also applied to the integrated heat.

[3] = in vitro; settings: human

T1 sequence (Q8I298 entry or part of it): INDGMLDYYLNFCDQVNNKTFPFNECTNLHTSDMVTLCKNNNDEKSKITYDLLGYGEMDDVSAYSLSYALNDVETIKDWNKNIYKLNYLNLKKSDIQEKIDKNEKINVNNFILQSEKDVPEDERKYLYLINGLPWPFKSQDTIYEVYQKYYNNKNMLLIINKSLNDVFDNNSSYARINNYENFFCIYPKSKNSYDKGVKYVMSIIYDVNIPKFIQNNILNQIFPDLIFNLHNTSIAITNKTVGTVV

Q: For `CC(C)(Nc1ccc(Cl)c(S(=O)(=O)N2CCOCC2)c1)C(=O)Nc1ccc(F)c(Cl)c1` [W-991], which EC50 ([1]; Plasmodium falciparum, Supplementary Table 1, PopD-D7 (N309K), 72 h, read-out: EC50) is on record?
A: Its EC50 is > 200 nM.

Q: What about the “resistance of the line compared with 3D7” value ([1]; PopD-D7 (N309K), Fig 4B) of the same compound?
A: The value was “highly resistant”.

Q: And the “(av-uRBC) / (DMSO-uRBC) x100” value ([1]; PopD-D7, 0.0762079 nM, biological replicate 1)?
A: The value was 96.5635.

Q: And the “(av-uRBC) / (DMSO-uRBC) x100” value ([1]; PopD-D7, 0.0762079 nM, biological replicate 2)?
A: Its value is 102.6.

Q: What about the “(av-uRBC) / (DMSO-uRBC) x100” value ([1]; PopD-D7, 0.0762079 nM, biological replicate 3) of the same compound?
A: Its value is 87.8712.

Q: What about the “(av-uRBC) / (DMSO-uRBC) x100” value ([1]; PopD-D7, 0.228624 nM, biological replicate 1) of the same compound?
A: Its value is 100.291.

Q: And the “(av-uRBC) / (DMSO-uRBC) x100” value ([1]; PopD-D7, 0.228624 nM, biological replicate 2)?
A: The value was 103.59.

Q: What about the “(av-uRBC) / (DMSO-uRBC) x100” value ([1]; PopD-D7, 0.228624 nM, biological replicate 3) of the same compound?
A: Its value is 90.7443.

Q: What about the “(av-uRBC) / (DMSO-uRBC) x100” value ([1]; PopD-D7, 0.685871 nM, biological replicate 1) of the same compound?
A: Its value is 102.374.

Q: And the “(av-uRBC) / (DMSO-uRBC) x100” value ([1]; PopD-D7, 0.685871 nM, biological replicate 2)?
A: The value was 101.183.

Q: And the “(av-uRBC) / (DMSO-uRBC) x100” value ([1]; PopD-D7, 0.685871 nM, biological replicate 3)?
A: The value was 89.0089.

Q: What about the “(av-uRBC) / (DMSO-uRBC) x100” value ([1]; PopD-D7, 2.05761 nM, biological replicate 1) of the same compound?
A: The value was 98.4575.

Q: And the “(av-uRBC) / (DMSO-uRBC) x100” value ([1]; PopD-D7, 2.05761 nM, biological replicate 2)?
A: The value was 102.962.

Q: And the “(av-uRBC) / (DMSO-uRBC) x100” value ([1]; PopD-D7, 2.05761 nM, biological replicate 3)?
A: The value was 86.5214.

Q: What about the “(av-uRBC) / (DMSO-uRBC) x100” value ([1]; PopD-D7, 6.17284 nM, biological replicate 1) of the same compound?
A: Its value is 97.3005.

Q: And the “(av-uRBC) / (DMSO-uRBC) x100” value ([1]; PopD-D7, 6.17284 nM, biological replicate 2)?
A: The value was 103.791.

Q: And the “(av-uRBC) / (DMSO-uRBC) x100” value ([1]; PopD-D7, 6.17284 nM, biological replicate 3)?
A: Its value is 87.2349.

Q: And the “(av-uRBC) / (DMSO-uRBC) x100” value ([1]; PopD-D7, 18.5185 nM, biological replicate 1)?
A: The value was 94.5325.

Q: And the “(av-uRBC) / (DMSO-uRBC) x100” value ([1]; PopD-D7, 18.5185 nM, biological replicate 2)?
A: The value was 103.019.

Q: What about the “(av-uRBC) / (DMSO-uRBC) x100” value ([1]; PopD-D7, 18.5185 nM, biological replicate 3) of the same compound?
A: Its value is 88.7968.

Q: What about the “(av-uRBC) / (DMSO-uRBC) x100” value ([1]; PopD-D7, 55.5556 nM, biological replicate 1) of the same compound?
A: Its value is 87.2483.

Q: And the “(av-uRBC) / (DMSO-uRBC) x100” value ([1]; PopD-D7, 55.5556 nM, biological replicate 2)?
A: The value was 102.262.

Q: And the “(av-uRBC) / (DMSO-uRBC) x100” value ([1]; PopD-D7, 55.5556 nM, biological replicate 3)?
A: The value was 77.42.

Q: What about the “(av-uRBC) / (DMSO-uRBC) x100” value ([1]; PopD-D7, conc. 166.667 nM, Biological replicate 1 (2021-10-25)) of the same compound?
A: Its value is 74.488.

Q: And the “(av-uRBC) / (DMSO-uRBC) x100” value ([1]; PopD-D7, conc. 166.667 nM, Biological replicate 2 (2021-11-03))?
A: Its value is 97.8669.

Q: And the “(av-uRBC) / (DMSO-uRBC) x100” value ([1]; PopD-D7, conc. 166.667 nM, Biological replicate 3 (2021-11-11))?
A: Its value is 58.6579.

Q: And the “(av-uRBC) / (DMSO-uRBC) x100” value ([1]; PopD-D7, conc. 500 nM, Biological replicate 1 (2021-10-25))?
A: Its value is 40.3034.

Q: And the “(av-uRBC) / (DMSO-uRBC) x100” value ([1]; PopD-D7, conc. 500 nM, Biological replicate 2 (2021-11-03))?
A: Its value is 75.4488.

Q: What about the “(av-uRBC) / (DMSO-uRBC) x100” value ([1]; PopD-D7, conc. 500 nM, Biological replicate 3 (2021-11-11)) of the same compound?
A: The value was 31.855.

Q: And the “Fold change compared to 3D7” value ([1]; Supplementary Table 1, EC50 on PopD-D7 vs 3D7)?
A: Its value is > 278 fold.

Q: What about the Kd ([2]; ITC, 25 °C, 90 µM PfSTART1 titrated into 10 µM compound, n = 2, ± SD) of the same compound?
A: Its Kd is 10 ± 7 nM.

Q: And the ΔH ([2]; ITC, 25 °C, n = 2, ± SD)?
A: Its ΔH is -12.8 ± 0.1 kcal/mol.

Q: And the “−TΔS” value ([2]; ITC, 25 °C, n = 2, ± SD)?
A: Its value is 1.8 ± 0.6 kcal/mol.

Q: And the “Differential Power DP_Y” value ([2]; DP_X 0.083333)?
A: Its value is -0.000146.

Q: What about the “Differential Power DP_Y” value ([2]; DP_X 0.1) of the same compound?
A: The value was 9.8e-5.

Q: What about the “ΔH NDH_Y” value ([2]; NDH_X 0.104703) of the same compound?
A: Its value is -13.8427.

Q: And the “ΔH NDH_Y” value ([2]; NDH_X 0.192876)?
A: The value was -12.6755.

Q: What about the CC50 [3] of the same compound?
A: Its CC50 is 29000 nM.
